The values below come from PMC12301304 (Frontiers in Pharmacology, 2025).

In one data set the target is T1, CYP2c11 (Rattus norvegicus, UniProt P08683).
T1 sequence (P08683 1-500): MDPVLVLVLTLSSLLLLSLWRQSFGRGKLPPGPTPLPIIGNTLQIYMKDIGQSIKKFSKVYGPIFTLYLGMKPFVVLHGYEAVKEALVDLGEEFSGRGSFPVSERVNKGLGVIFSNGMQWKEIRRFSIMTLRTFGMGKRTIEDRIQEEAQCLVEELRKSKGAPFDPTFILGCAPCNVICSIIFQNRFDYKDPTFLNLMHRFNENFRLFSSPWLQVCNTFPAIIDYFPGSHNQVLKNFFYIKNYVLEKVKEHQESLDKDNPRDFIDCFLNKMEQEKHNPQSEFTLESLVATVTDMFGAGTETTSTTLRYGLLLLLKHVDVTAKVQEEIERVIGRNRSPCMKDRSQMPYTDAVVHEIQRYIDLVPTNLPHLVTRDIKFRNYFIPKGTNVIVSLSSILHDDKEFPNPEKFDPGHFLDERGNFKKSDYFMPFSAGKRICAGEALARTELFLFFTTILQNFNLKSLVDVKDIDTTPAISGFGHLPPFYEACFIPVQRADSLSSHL
Details: from tissue; host or cells: live male Sprague-Dawley rats (whole animal, mainly liver). The note with it: in vivo.

A further data set concerns the target T2, CYP2d2 (Rattus norvegicus, UniProt P10634).
T2 sequence (P10634 1-500): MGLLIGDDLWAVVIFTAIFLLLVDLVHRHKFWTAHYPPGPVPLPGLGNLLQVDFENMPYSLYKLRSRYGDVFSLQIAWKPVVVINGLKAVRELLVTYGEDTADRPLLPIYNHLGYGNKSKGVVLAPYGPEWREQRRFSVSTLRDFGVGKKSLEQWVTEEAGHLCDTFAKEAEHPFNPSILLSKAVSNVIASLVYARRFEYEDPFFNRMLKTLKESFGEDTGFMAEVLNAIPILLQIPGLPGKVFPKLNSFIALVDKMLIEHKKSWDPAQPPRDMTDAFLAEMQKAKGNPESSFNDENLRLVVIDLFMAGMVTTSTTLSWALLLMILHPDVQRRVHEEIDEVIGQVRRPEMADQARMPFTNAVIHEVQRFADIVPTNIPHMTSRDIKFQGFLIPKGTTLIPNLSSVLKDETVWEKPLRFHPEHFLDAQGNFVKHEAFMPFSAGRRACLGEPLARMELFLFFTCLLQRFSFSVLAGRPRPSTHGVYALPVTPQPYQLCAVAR
As to the method: (§1) The effect of the Zhicaowu–Hezi combination on CYP450 enzymes in RLM was evaluated by assessing the metabolic clearance rates of theophylline, metoprolol, bupropion, mephenytoin (CYP2c13), chlorzoxazone, testosterone, and diclofenac.
(§2) On day 15, the rats were humanely euthanized, and liver tissues were excised for microsomal preparation. […] Livers from each group were repeatedly washed with ice-cold phosphate buffered saline (PBS). […] Subsequently, they were blotted dry with filter paper, weighed, and homogenized by adding 4 mL of ice-cold PBS per gram of liver tissue. The mixture was homogenized in an ice bath. The liver homogenate was subjected to centrifugation at 10,000 RPM for 20 min at 4°C. The resulting supernatant was then combined with an ice-cold 88-mmol/L CaCl2 solution at a 1:1 ratio, and the mixture was homogenized in an ice bath for 5 min. The resulting solution was then centrifuged at 25,000 × g for 30 min at 4°C. The supernatant was discarded and the precipitate was repeatedly resuspended in PBS–20% glycerol buffer. The precipitate was then stored in a separate bottle at −80°C for backup. The protein concentration of the prepared RLM was determined using a bicinchoninic acid protein assay kit.
(§3) Preincubation was conducted for 5 min in a water bath at 37°C, after which NADPH (1 mmol/L) was added, and incubation continued for 30 min at 37°C. Once the incubation period elapsed, the reaction was terminated by the addition of an ice-cold IS-containing acetonitrile solution. The samples were vortexed for 2 min and centrifuged at 15,000 RPM for 10 min. The resulting supernatant was filtered through a 0.22-μm organic microporous membrane, and 20 μL of the filtered solution was injected into the HPLC assay. To prevent the organic solvents from inducing or inhibiting the enzyme, the volume fraction of organic solvents in the entire incubation system was maintained at 1%. […] The inhibitor group was added with corresponding inhibitor, while all other procedures remained identical.

The next data set deals with T3, CYP2b1 (Rattus norvegicus, UniProt P00176).
T3 sequence (P00176 1-491): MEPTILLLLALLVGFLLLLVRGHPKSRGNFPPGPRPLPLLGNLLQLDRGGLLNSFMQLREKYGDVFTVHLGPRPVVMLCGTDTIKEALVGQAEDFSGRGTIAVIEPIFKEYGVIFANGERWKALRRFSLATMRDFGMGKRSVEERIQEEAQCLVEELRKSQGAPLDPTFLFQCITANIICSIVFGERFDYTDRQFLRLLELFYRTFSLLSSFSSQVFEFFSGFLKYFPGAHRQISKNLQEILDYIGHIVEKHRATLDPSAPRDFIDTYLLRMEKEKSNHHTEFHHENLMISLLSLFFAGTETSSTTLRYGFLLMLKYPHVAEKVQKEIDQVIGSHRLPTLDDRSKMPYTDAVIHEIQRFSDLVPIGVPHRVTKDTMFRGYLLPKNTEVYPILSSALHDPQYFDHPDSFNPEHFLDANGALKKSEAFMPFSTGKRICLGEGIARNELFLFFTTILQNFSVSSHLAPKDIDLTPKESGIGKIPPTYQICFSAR
The data set is described as follows: RLM incubation: metabolic clearance rate of bupropion (CYP2b1). The note with it: RLM 0.5 mg/mL, 30 min 37°C, inhibitor added, blank control 7.92 ± 0.60, n = 3. As to the method: as §1, §2, §3

SMILES strings stand for the structures. Like-named read-outs stand apart in the source and are kept apart here.

Description for CYP2c11: The effect of the Zhicaowu–Hezi combination on CYP450 enzymes in rats was evaluated by examining the pharmacokinetics of theophylline (CYP1a2), metoprolol (CYP2d2), bupropion (CYP2b1), omeprazole (CYP2c13), chlorzoxazone (CYP2e1), testosterone (CYP3a1), and diclofenac (CYP2c11).
The collected blood was placed in sodium heparin-treated centrifuge tubes and centrifuged at 4°C for 10 min at 3,000 RPM. […] After 10 min of sedimentation, the supernatant was extracted through a 0.22-μm microporous membrane, 20 μL of which was injected into HPLC. The pharmacokinetic parameters of each probe drug were calculated using the non-atrial compartment model in Drug and Statistics software (DAS, 3.0; Shanghai, China).

For the molecule `CCC1(c2ccccc2)C(=O)NC(=O)NC1=O` [P, phenobarbital sodium], on CYP2c11, the “diclofenac AUC(0-t)” value turned out to be 3978 ± 385 ng·h/mL, the “diclofenac AUC(0-∞)” value was 4057 ± 343 ng·h/mL, the “diclofenac CLz/F” value is given as 3,071.310 ± 519.261 mL/h/kg and the “diclofenac Cmax” value was found to be 735 ± 68 ng/mL. The “diclofenac t1/2 z” value on CYP2c11 is on record as 3.342 ± 0.425 h.
For the molecule `S=P(N1CC1)(N1CC1)N1CC1` [Thiotepa], the “CYP2d2 (%) metabolic clearance rate of probe drug” value at CYP2d2 stood at 12.67 ± 0.65%. Also, at CYP2b1, the “CYP2b1(%) metabolic clearance rate of probe drug” value amounted to 2.24 ± 0.16 %.
On to `O=c1cc(-c2ccccc2)oc2c1ccc1ccccc12` [α-naphthoflavone], for which the “CYP2d2 (%) metabolic clearance rate of probe drug” value on CYP2d2 (RLM 0.5 mg/mL, 30 min 37°C, inhibitor added, probe metoprolol, blank control […] ± 2.12, n = 3) stood at 13.12 ± 0.82%. In addition, the “CYP2b1(%) metabolic clearance rate of probe drug” value on CYP2b1 came out at 8.00 ± 0.97%.
